How the values were obtained:
fungi = conditions: compared to rapamycin, cited from earlier work; for antifungal activities: Wong et al., 1998
FKBP12 PPlase = FKBP12 PPlase (Homo sapiens, UniProt P62942); conditions: compared to rapamycin; Box et al., 1995; cited from earlier work
murine splenic B cells = conditions: compared to rapamycin; Box et al., 1995; cited from earlier work
murine splenic T cells = conditions: compared to rapamycin; Box et al., 1995; cited from earlier work
cell proliferation = conditions: compared to rapamycin; Khaw et al., 1998; cited from earlier work
[1] = system: SF268 (SF-268, CNS) tumour cell line; experiment: Monolayer proliferation assay (modified propidium iodide), SF268; assay type: cell-based, human; conditions: 4 days incubation, mean of duplicate experiments
Description: (§1) In vitro evaluation of compounds for anticancer activity in a panel of 12 human tumour cell lines in a monolayer proliferation assay were carried out at the Oncotest Testing Facility, Institute for Experimental Oncology, Oncotest GmbH, Freiburg.
(§2) The Oncotest cell lines were established from human tumor xenografts as described by Roth et al. 1999. The origin of the donor xenografts was described by Fiebig et al. 1992. Other cell lines were either obtained from the NCI (H460, SF-268, OVCAR-3, DU145, MDA-MB-231, MDA-MB-468) or purchased from DSMZ, Braunschweig, Germany (LNCAP).
(§3) All cell lines, unless otherwise specified, are grown at 37° C. in a humidified atmosphere (95% air, 5% CO2) in a ‘ready-mix’ medium containing RPMI 1640 medium, 10% fetal calf serum, and 0.1 mg/mL gentamicin (PAA, Cölbe, Germany).
(§4) A modified propidium iodide assay was used to assess the effects of the test compound(s) on the growth of twelve human tumor cell lines (Dengler et al., 1995).
(§5) Briefly, cells were harvested from exponential phase cultures by trypsinization, counted and plated in 96 well flat-bottomed microtitre plates at a cell density dependent on the cell line (5-10.000 viable cells/well). After 24 h recovery to allow the cells to resume exponential growth, 0.01 mL of culture medium (6 control wells per plate) or culture medium containing 39-desmethoxyrapamycin were added to the wells. Each concentration was plated in triplicate. 39-Desmethoxyrapamycin was applied in two concentrations (0.001 mM and 0.01 mM). Following 4 days of continuous incubation, cell culture medium with or without 39-desmethoxyrapamycin was replaced by 0.2 mL of an aqueous propidium iodide (PI) solution (7 mg/L). To measure the proportion of living cells, cells were permeabilized by freezing the plates. After thawing the plates, fluorescence was measured using the Cytofluor 4000 microplate reader (excitation 530 nm, emission 620 nm), giving a direct relationship to the total number of viable cells.
(§6) Growth inhibition was expressed as treated/control×100 (% T/C) and are provided for a selection of cell lines. […]

[2] = system: 251L (GXF 251L, gastric) tumour cell line; experiment: Monolayer proliferation assay (modified propidium iodide), 251L; assay type: cell-based, human; conditions: 4 days incubation, mean of duplicate experiments
Description: as §1, §2, §3, §4
as §5, with “39-Desmethoxyrapamycin was applied in two concentrations (0.001 mM and 0.01 mM).” left out
as §6

[3] = system: H460 (NCl-H460, lung) tumour cell line; experiment: Monolayer proliferation assay (modified propidium iodide), H460; assay type: cell-based, human; conditions: 4 days incubation, mean of duplicate experiments
Description: as §1, §2, §3, §4, §5
Growth inhibition was expressed as treated/control×100 (% T/C) and are provided for a selection of cell lines. For active compounds, the average IC50 & IC70 values across the entire cell line panel examined were estimated by plotting compound concentration versus cell viability and are also provided.
In vitro evaluation of 17-desmethyl-39-desmethoxyrapamycin for anticancer activity in a panel of 12 human tumour cell lines in a monolayer proliferation assay was carried out as described above using a modified propidium iodide assay.

[4] = system: 394NL (MEXF 394NL, melanoma) tumour cell line; experiment: Monolayer proliferation assay (modified propidium iodide), 394NL; assay type: cell-based, human; conditions: 4 days incubation, mean of duplicate experiments
Description: as §1, §2, §3, §4
as §5, with “39-Desmethoxyrapamycin was applied in two concentrations (0.001 mM and 0.01 mM).” left out
as §6

[5] = system: LNCAP (prostate, PTEN negative) tumour cell line; experiment: Monolayer proliferation assay (modified propidium iodide), LNCAP; assay type: cell-based, human; conditions: 4 days incubation, mean of duplicate experiments
Description: as §1, §2, §3, §4
as §5, with “39-Desmethoxyrapamycin was applied in two concentrations (0.001 mM and 0.01 mM).” left out
as §6

[6] = system: OVCAR3 (OVCAR-3, ovarian) tumour cell line; experiment: Monolayer proliferation assay (modified propidium iodide), OVCAR3; assay type: cell-based, human; conditions: 4 days incubation, mean of duplicate experiments
Description: as §1, §2, §3, §4, §5, §6

[7] = system: MCF7 (MCF-7, breast) tumour cell line; experiment: Monolayer proliferation assay (modified propidium iodide), MCF7; assay type: cell-based, human; conditions: 4 days incubation, mean of duplicate experiments
Description: as §1, §2, §3, §4, §5, §6

[8] = system: DU145 (prostate, PTEN positive) tumour cell line; experiment: Monolayer proliferation assay (modified propidium iodide), DU145; assay type: cell-based, human; conditions: 4 days incubation, mean of duplicate experiments
Description: as §1, §2, §3, §4, §5, §6

[9] = system: panel of human tumour cell lines; experiment: Monolayer proliferation assay, mean across the cell line panel; assay type: cell-based; conditions: average across the cell lines tested; estimated from concentration versus cell viability
Description: as §1, §2, §3, §4, §5, §6

[10] = system: 1138L (UXF 1138L, uterus) tumour cell line; experiment: Monolayer proliferation assay (modified propidium iodide), 1138L; assay type: cell-based, human; conditions: 4 days incubation, mean of duplicate experiments
Description: as §1, §2, §3, §4, §5, §6

[11] = system: mixed lymphocyte reaction; conditions: Nishida et al., 1995; cited from earlier work

Sequence of FKBP12 PPlase (P62942 whole entry): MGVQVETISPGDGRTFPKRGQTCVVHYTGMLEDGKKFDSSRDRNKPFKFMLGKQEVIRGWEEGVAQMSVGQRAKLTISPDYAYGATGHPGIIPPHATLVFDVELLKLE

CO[C@H]1C[C@@H]2CC[C@@H](C)[C@@](O)(O2)C(=O)C(=O)N2CCCC[C@H]2C(=O)O[C@H]([C@H](C)C[C@@H]2CC[C@@H](O)[C@H](OC)C2)CC(=O)[C@H](C)/C=C(\C)[C@@H](O)CC(=O)[C@H](C)C[C@H](C)/C=C/C=C/C=C/1C [27-desmethoxyrapamycin]
antifungal activities (fungi): lower than that of rapamycin

CO[C@H]1C[C@@H]2CC[C@@H](C)[C@@](O)(O2)C(=O)C(=O)N2CCCC[C@H]2C(=O)O[C@H]([C@H](C)C[C@@H]2CC[C@@H](O)[C@H](OC)C2)CC(=O)[C@H](C)/C=C(\C)[C@@H](O)[C@@H](O)C(=O)[C@H](C)C[C@H](C)/C=C/C=C/C=C/1C [27-O-desmethylrapamycin]
antifungal activity (fungi; Box et al., 1995): lower than that of rapamycin | antifungal activities (fungi): lower than that of rapamycin | inhibition of FKBP12 PPlase activity (FKBP12 PPlase): seemed to be increased | inhibition of LPS-stimulated proliferation of murine splenic B cells (murine splenic B cells): decreased when compared to rapamycin | inhibition of ConA-stimulated proliferation of murine splenic T cells (murine splenic T cells): decreased when compared to rapamycin

COC1CC2CCC(C)C(O)(O2)C(=O)C(=O)N2CCCC2C(=O)OC(C(C)CC2CCC(O)C(OC)C2)CC(=O)C(C)/C=C(\C)C(O)C(OC)C(=O)C(C)CC(C)/C=C/C=C/C=C/1C (stereo not shown) [prolylrapamycin]
antifungal activities (fungi): lower than that of rapamycin

CO[C@H]1C[C@@H]2CC[C@@H](C)[C@@](O)(O2)C(=O)C(=O)N2CC(O)C[C@H]2C(=O)O[C@H]([C@H](C)C[C@@H]2CC[C@@H](O)[C@H](OC)C2)CC(=O)[C@H](C)/C=C(\C)[C@@H](O)CC(=O)[C@H](C)C[C@H](C)/C=C/C=C/C=C/1C (stereo partly shown) [4-hydroxyprolyl-26-desmethoxy-rapamycin]
inhibitory activity in proliferation assays (cell proliferation): significantly less than that of rapamycin

CO[C@@H]1/C=C/C=C/C=C/[C@@H](C)C[C@@H](C)C(=O)[C@H](OC)[C@H](O)/C(C)=C/[C@@H](C)C(=O)C[C@@H]([C@H](C)C[C@H]2CC[C@H](O)CC2)OC(=O)[C@@H]2CCCCN2C(=O)C(=O)[C@]2(O)O[C@@H](CC[C@H]2C)C1 [17-desmethyl-39-desmethoxyrapamycin]
Test/Control (%) at drug concentration ([1]; 1 μM): 57% | Test/Control (%) at drug concentration ([1]; 10 μM): 37% | Test/Control (%) at drug concentration ([1]; 100 μM): 4% | Test/Control (%) at drug concentration ([2]; 1 μM): 85% | Test/Control (%) at drug concentration ([2]; 10 μM): 89% | Test/Control (%) at drug concentration ([2]; 100 μM): 16% | Test/Control (%) at drug concentration ([3]; 1 μM): 82% | Test/Control (%) at drug concentration ([3]; 10 μM): 76% | Test/Control (%) at drug concentration ([3]; 100 μM): 3% | Test/Control (%) at drug concentration ([4]; 1 μM): 66% | Test/Control (%) at drug concentration ([4]; 10 μM): 61% | Test/Control (%) at drug concentration ([4]; 100 μM): 4% | Test/Control (%) at drug concentration ([5]; 1 μM): 59% | Test/Control (%) at drug concentration ([5]; 10 μM): 43% | Test/Control (%) at drug concentration ([5]; 100 μM): 15% | Test/Control (%) at drug concentration ([6]; 1 μM): 84% | Test/Control (%) at drug concentration ([6]; 10 μM): 61% | Test/Control (%) at drug concentration ([6]; 100 μM): 8% | Test/Control (%) at drug concentration ([7]; 1 μM): 59% | Test/Control (%) at drug concentration ([7]; 10 μM): 52% | Test/Control (%) at drug concentration ([7]; 100 μM): 8% | Test/Control (%) at drug concentration ([8]; 1 μM): 69% | Test/Control (%) at drug concentration ([8]; 10 μM): 66% | Test/Control (%) at drug concentration ([8]; 100 μM): 5% | IC50 [9]: 13.3 µM | Mean IC70 [9]: 38.2 µM | Test/Control (%) at drug concentration ([10]; 1 μM): 59% | Test/Control (%) at drug concentration ([10]; 10 μM): 46% | Test/Control (%) at drug concentration ([10]; 100 μM): 5%

CO[C@H]1C[C@@H]2CC[C@@H](C)[C@@](O)(O2)C(=O)C(=O)N2CCCC[C@H]2C(=O)O[C@H]([C@H](C)C[C@@H]2CC[C@@H](O)[C@H](OC)C2)CC(=O)[C@H](C)/C=C(\C)[C@@H](O)[C@@H](OC)C(=O)[C@H](C)C[C@H](C)/C=C/C=C/C=C/1C [Rapamycin, reference compound]
Test/Control (%) at drug concentration ([3]; 10 μM): 66% | Mean IC70 [9]: 9.1 µM

CO[C@H]1C[C@@H]2CC[C@@H](C)[C@](O)(CC(=O)N3CCCC[C@H]3C(=O)O[C@H]([C@H](C)C[C@@H]3CC[C@@H](O)[C@H](OC)C3)CC(=O)[C@H](C)/C=C(\C)[C@@H](O)[C@@H](OC)C(=O)[C@H](C)C[C@H](C)/C=C/C=C/C=C/1C)O2 [9-deoxorapamycin]
mixed lymphocyte reaction (MLR) inhibitory activity [11]: more significant decrease in activity

— patent US7803808B2, “Production of polyketides and other natural products” (Wyeth LLC, priority 2004, dated 2010)
